Experimental findings from patent US10981879B2, “Thioether triazolopyridine and triazolopyrimidine inhibitors of myeloperoxidase” (BRISTOL-MYERS SQUIBB COMPANY, priority 2014, dated 2021) are described below.

Bounds are passed on as bounds.

Common to all, as to type: biochemical
Experiment [1] concerns the target eosinophil peroxidase (EPX) (Homo sapiens (Human), UniProt P11678). The experiment can be described thus: EPX bromination assay. The method, then:
EPX bromination activity was measured in 100 mM KPi (pH 7.4) by monitoring the H2O2 catalyzed formation of 3-bromo tyrosine from tyrosine and potassium bromide. A 50 μl mixture of 0.6 μM EPX (Lee Biosolutions Cat #342-60) was added to 100 nL inhibitor in 100% DMSO in a 384 well REMP plate. Enzyme and compound were preincubated for ten minutes at rt.
After the ten minute preincubation of enzyme and inhibitor, 25 μL of a mixture containing 400 μM tyrosine and 1200 μM potassium bromide was added to the plate containing enzyme and inhibitor, followed by the addition of 25 μl of 20 μM H2O2. The reaction was allowed to proceed for 15 minutes, at which time it was quenched with 10 μL of 20% TCA. The final concentrations of all components were 0.3 μM EPX, 100 μM tyrosine, […], 5 μM H2O2, 0.1% DMSO, 2.0% TCA.
IC50 values were determined by determining the peak areas of 3-bromotyrosine present at the end of the 15 minute reaction and fitting the data to:
[formula] where A=minimal Y value (activity level of inhibited sample), B=maximal Y value (activity level of uninhibited sample), C=Log IC50, D=Hill Slope, x=concentration of inhibitor.
Reversed-phase analysis was performed on a Waters Acquity Ultra Performance LC system using an Acquity UPLC BEH C18 […], 2.1×50 mm analytical column. The column was maintained at 60° C. Samples were eluted using a gradient of 0%-100% B over 2.5 minutes, followed by equilibration with 100% A for 1 minute where A consisted of 0.1% TFA and B consisted of 90% MeOH/0.1% TFA at a flow rate of 0.6 mL/min. The retention time of 3-bromo tyrosine was 1.22 min.

Experiment [2] has as its target T1, myeloperoxidase (MPO) (Homo sapiens (Human), UniProt P05164). As to the kind of experiment: MPO chlorination assay (APF). The procedure, abridged: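 Human MPO (200 pM) with 120 mM NaCl preincubated with inhibitor 10 minutes at rt in 100 mM KPi pH 7.4. Reaction started with APF mixture containing 10 μM H2O2; fluorescein fluorescence (ex 485/em 535 nm) read kinetically 3 minutes. IC50 from slopes of linear kinetic portion, fitted with a four-parameter Hill equation.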

For experiment [3], the target named is T1, myeloperoxidase (MPO). As to the kind of experiment: MPO peroxidation assay (Amplex Red). As to conditions: Table 1. The method, then:
MPO peroxidation activity was measured in 100 mM KPi (pH 7.4) by utilizing the non-fluorescent reagent Amplex Red (Invitrogen catalog #A12222) which can be oxidized to the highly fluorescent resorufin. Amplex Red is oxidized by the peroxidase action of MPO to resorufin. Reactions were carried out in 50 μL total volume by adding a 25 μL mixture of 200 pM myeloperoxidase and 40 nM H2O2 (Sigma #349887) to 100 nL inhibitor in 100% DMSO in a 384 well Perkin Elmer Optiplate. Enzyme and compound were preincubated for ten minutes at rt.
After the ten minute preincubation, 25 μL of an Amplex Red mixture containing 200 μM Amplex Red and 10 mM H2O2 was added to the plate. Kinetic determinations were carried out immediately on a Perkin Elmer Envision (15 minute kinetic read, Ex: 535 nm, Em: 590 nm).
IC50 values were calculated by determining the slope of the linear portion of the kinetic trace (180-540 secs), and using that calculated slope to determine % inhibition occurring at each concentration of inhibitor using the following equation:
[formula] where A=minimal Y value (activity level of inhibited sample), B=maximal Y value (activity level of uninhibited sample), C=Log IC50, D=Hill Slope, x=concentration of inhibitor. MPO Chlorination Assay

Setting [4] is: MPO chlorination assay, ranges given, read-out: MPO chlorination assay IC50.
Where [5] appears, read: MPO chlorination assay (APF), Table 1, read-out: APF IC50.

T1 sequence (P05164 49-745): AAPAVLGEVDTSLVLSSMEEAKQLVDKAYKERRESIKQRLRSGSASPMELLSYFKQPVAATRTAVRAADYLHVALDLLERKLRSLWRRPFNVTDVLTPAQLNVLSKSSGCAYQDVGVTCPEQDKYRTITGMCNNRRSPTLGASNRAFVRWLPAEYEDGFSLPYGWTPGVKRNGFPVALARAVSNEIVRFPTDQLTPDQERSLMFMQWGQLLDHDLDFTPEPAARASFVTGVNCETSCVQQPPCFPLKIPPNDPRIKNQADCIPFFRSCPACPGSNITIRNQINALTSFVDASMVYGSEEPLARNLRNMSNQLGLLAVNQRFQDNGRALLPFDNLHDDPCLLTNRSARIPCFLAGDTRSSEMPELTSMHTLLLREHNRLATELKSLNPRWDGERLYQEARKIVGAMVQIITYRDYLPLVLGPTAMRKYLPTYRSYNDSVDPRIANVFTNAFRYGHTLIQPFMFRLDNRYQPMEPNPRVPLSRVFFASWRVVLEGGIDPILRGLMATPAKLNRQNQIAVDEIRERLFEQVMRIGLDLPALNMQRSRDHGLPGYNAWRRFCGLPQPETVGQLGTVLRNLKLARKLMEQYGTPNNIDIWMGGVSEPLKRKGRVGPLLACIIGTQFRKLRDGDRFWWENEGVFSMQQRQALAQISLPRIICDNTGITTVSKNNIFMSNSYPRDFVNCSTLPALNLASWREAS
Chain of eosinophil peroxidase (EPX) (P11678 251-715): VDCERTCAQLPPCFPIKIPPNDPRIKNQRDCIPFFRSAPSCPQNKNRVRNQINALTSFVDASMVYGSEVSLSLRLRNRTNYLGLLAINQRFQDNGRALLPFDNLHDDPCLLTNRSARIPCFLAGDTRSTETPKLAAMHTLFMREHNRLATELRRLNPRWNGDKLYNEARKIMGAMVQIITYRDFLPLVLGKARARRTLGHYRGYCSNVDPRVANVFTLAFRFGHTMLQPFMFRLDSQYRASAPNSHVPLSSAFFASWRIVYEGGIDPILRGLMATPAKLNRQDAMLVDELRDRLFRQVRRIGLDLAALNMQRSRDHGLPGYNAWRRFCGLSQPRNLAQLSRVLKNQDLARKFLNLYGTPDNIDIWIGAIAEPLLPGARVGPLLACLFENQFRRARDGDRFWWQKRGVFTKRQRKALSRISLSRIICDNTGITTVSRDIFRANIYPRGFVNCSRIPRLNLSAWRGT
Chain of eosinophil peroxidase (EPX) (P11678 140-250): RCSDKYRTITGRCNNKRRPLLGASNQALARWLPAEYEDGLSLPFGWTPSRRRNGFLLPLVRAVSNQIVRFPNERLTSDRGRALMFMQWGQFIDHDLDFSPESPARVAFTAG

With `Nc1cc(SCc2ccc(OC(F)(F)F)cc2)c2nn[nH]c2n1` [Example 7, 7-((4-(trifluoromethoxy)benzyl)thio)-3H-[1,2,3] triazolo[4,5-b]pyridin-5-amine], the IC50 – broadly, the concentration at which inhibition is half-maximal – in experiment [1] is 20 nM; on myeloperoxidase (MPO) [2] (setting [4]), ≤ 60 nM.

As for `CC(Sc1cc(N)nc2[nH]nnc12)c1ccccc1` (centres unmarked) [Example 2, 7-((1-phenylethyl)thio)-3H-[1,2,3]triazolo[4,5-b]pyridin-5-amine], the half-inhibitory concentration (IC50) turned out to be 1 nM in experiment [1], 10 nM at myeloperoxidase (MPO) [3] and 10 nM at myeloperoxidase (MPO) [2] (setting [5]).

As to `CCn1ncc(CSc2nc(N)nc3[nH]nnc23)c1C(F)(F)F` [Example 164, 7-(((1-ethyl-5-(trifluoromethyl)-1H-pyrazol-4-yl)methyl)thio)-3H-[1,2,3]triazolo[4,5-d] pyrimidin-5-amine], the IC50 at myeloperoxidase (MPO) [3] worked out at 220 nM; on myeloperoxidase (MPO) [2] (setting [5]) it was 770 nM.

For the molecule `Nc1cc(SCc2cnn(C3CCCCC3)c2C(F)(F)F)c2nn[nH]c2n1` [Example 116, 7-(((1-cyclohexyl-5-(trifluoromethyl)-1H-pyrazol-4-yl)methyl)thio)-3H-[1,2,3]triazolo[4,5-b] pyridin-5-amine], the values for the half-inhibitory concentration (IC50) against myeloperoxidase (MPO) [3] and at myeloperoxidase (MPO) [2] (setting [5]) were 100 nM and 530 nM, respectively.

On to `Nc1cc(SCc2c(Cl)cccc2Cl)c2nn[nH]c2n1` [Example 11, 7-((2,6-Dichlorobenzyl)thio)-3H-[1,2,3]triazolo[4,5-b]pyridin-5-amine], for which the values for the IC50 (in experiment [1]; at myeloperoxidase (MPO) [2] (setting [4])) were 2 nM and ≤ 60 nM, respectively.

`Cc1nn(-c2ccc(F)cc2)c(C)c1CSc1cc(N)nc2[nH]nnc12` [Example 72, 7-(((1-(4-fluorophenyl)-3,5-dimethyl-1H-pyrazol-4-yl)methyl)thio)-3H-[1,2,3] triazolo[4,5-b]pyridin-5-amine]: the IC50 turned out to be 460 nM against myeloperoxidase (MPO) [3] and 580 nM on myeloperoxidase (MPO) [2] (setting [5]).

Turning to `Cc1nn(-c2ccccc2)c(Cl)c1CSc1cc(N)nc2[nH]nnc12` [Example 79, 7-(((5-chloro-3-methyl-1-phenyl-1H-pyrazol-4-yl)methyl)thio)-3H-[1,2,3] triazolo[4,5-b]pyridin-5-amine], the results for the half-inhibitory concentration (IC50) at myeloperoxidase (MPO) [3] and on myeloperoxidase (MPO) [2] (setting [5]) were 30 nM and 7 nM, respectively.

As for `Nc1cc(SCc2ccccc2-n2cccn2)c2nn[nH]c2n1` [Example 41, 7-((2-(1H-pyrazol-1-yl)benzyl)thio)-3H-[1,2,3] triazolo[4,5-b]pyridin-5-amine], the values for the IC50 against myeloperoxidase (MPO) [3] and at myeloperoxidase (MPO) [2] (setting [5]) were 20 nM and 80 nM, respectively.

For the molecule `N#Cc1ccc(C2CC2)c(CSc2cc(N)nc3[nH]nnc23)c1` [Example 88, 3-(((5-amino-3H-[1,2,3]triazolo[4,5-b]pyridin-7-yl)thio)methyl)-4-cyclopropylbenzonitrile], the IC50 stood at 30 nM against myeloperoxidase (MPO) [3] and 9 nM at myeloperoxidase (MPO) [2] (setting [5]).

Consider `CCOC(=O)c1cc(CSc2cc(N)nc3[nH]nnc23)n(C)n1` [Example 70, ethyl 5-(((5-amino-3H-[1,2,3]triazolo[4,5-b]pyridin-7-yl)thio)methyl)-1-methyl-1H-pyrazole-3-carboxylate], for which the IC50 at myeloperoxidase (MPO) [3] came out at 50 nM; at myeloperoxidase (MPO) [2] (setting [5]), 760 nM.

Consider `Cn1ncc2c(CSc3cc(N)nc4[nH]nnc34)cccc21` [Example 51, 7-(((1-methyl-1H-indazol-4-yl)methyl)thio)-3H-[1,2,3] triazolo[4,5-b]pyridin-5-amine], for which the 50% inhibitory concentration (IC50) in experiment [1] was 6 nM; at myeloperoxidase (MPO) [2] (setting [4]), 60 to 200 nM.
